From patent US20170008928A1, “NOVEL PEPTIDES AND PEPTIDE DERIVATIVES AND USES THEREOF” (Novo Nordisk A/S, priority 2015, published 2017)
Where two headings read alike, the source gives them in different places. Starred links: 1 amine or outer side, 2 acyl side, 3 side chain; linkers in the order of their positions; H or OH if unused. Non-standard residues stand in square brackets, D forms with d. Residues, ends and D or L forms follow the SMILES beside them. *: point of attachment. Phe(4-CH2SO3H) = N[C@@H](Cc1ccc(CS(=O)(=O)O)cc1)C(=O)O; C20 diacid = O=C(O)CCCCCCCCCCCCCCCCCCC(=O)*; sY = N[C@@H](Cc1ccc(OS(=O)(=O)O)cc1)C(=O)O; C18 diacid = O=C(O)CCCCCCCCCCCCCCCCC(=O)*; γGlu = O=C(O)[C@H](CCC(=O)[*:2])N[*:1]; 1Nal = N[C@@H](Cc1cccc2ccccc12)C(=O)O; C14 diacid = O=C(O)CCCCCCCCCCCCC(=O)*; NMeF = CN[C@@H](Cc1ccccc1)C(=O)O; dNMeD = CN[C@H](CC(=O)O)C(=O)O; Nle = CCCC[C@H](N)C(=O)O; AEEA = NCCOCCOCC(=O)O

Tests used:
[1] = biological target: T1, human cholecystokinin-1 receptor (CCK-1R) (Homo sapiens, UniProt P32238); assay: In vitro receptor binding to CCK-1R, SPA displacement of [125I]-CCK-8s from plasma membranes
T1 construct: host or cells: 1321-N1 cells
T1 sequence (P32238 1-428): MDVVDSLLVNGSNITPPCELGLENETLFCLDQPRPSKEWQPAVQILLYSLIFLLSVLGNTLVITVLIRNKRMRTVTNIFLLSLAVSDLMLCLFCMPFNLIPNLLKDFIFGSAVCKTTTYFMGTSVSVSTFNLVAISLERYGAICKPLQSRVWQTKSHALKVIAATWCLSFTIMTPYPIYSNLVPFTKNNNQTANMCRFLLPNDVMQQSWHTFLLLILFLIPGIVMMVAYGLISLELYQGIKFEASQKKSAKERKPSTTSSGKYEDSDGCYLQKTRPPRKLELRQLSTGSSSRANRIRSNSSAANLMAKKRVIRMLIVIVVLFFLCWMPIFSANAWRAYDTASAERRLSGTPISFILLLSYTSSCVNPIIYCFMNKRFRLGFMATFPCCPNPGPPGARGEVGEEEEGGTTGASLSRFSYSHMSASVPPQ

[2] = biological target: T2, human cholecystokinin-2 receptor (CCK-2R) (Homo sapiens, UniProt P32239); assay: In vitro potency on CCK-2R, whole cell functional assay (IP1 accumulation, IP-One HTRF); assay type: cell-based
T2 construct: host or cells: 1321-N1 cells (plasma membranes prepared by Evotec AG Hamburg)
T2 sequence (P32239 1-447): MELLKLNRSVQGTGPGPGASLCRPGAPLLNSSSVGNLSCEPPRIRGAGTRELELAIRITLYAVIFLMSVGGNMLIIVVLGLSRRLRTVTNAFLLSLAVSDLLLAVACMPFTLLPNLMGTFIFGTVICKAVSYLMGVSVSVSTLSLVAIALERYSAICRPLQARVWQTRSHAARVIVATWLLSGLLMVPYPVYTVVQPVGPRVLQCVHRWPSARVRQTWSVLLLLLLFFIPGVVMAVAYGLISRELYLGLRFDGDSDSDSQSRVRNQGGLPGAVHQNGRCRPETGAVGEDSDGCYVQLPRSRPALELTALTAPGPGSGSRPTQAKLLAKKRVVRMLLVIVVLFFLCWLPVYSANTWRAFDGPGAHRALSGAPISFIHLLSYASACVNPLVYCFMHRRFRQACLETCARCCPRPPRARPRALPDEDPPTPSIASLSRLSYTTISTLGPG

[3] = biological target: T2, human cholecystokinin-2 receptor (CCK-2R); assay: In vitro receptor binding to CCK-2R, SPA displacement of [125I]-CCK-8s from plasma membranes
[4] = Chemical stability compared to CCK-8s, 8 mM phosphate pH 7.4, RP-UHPLC; assay type: physicochemical; conditions: after two weeks at 37° C.
Procedure: The resulting samples were stored in HPLC vials at 5° C. and 37° C. for 2 weeks. The samples were analysed in the beginning of the experiment (t=0), after one week and after two weeks by RP-UHPLC with a mobile phase containing phosphate and with a gradient of acetonitrile. UV detection at 215 nm was used. Samples after one week and two weeks were analysed twice. The calculations were done as described above, and the results are summarised in Table 7 (average of two determinations).

[5] = displacement of [125I]-CCK-8s, plasma membranes of 1321-N1 cells expressing CCK-1R, read-out: IC50 (CCK-1R)
[6] = 1321-N1 cells stably expressing CCK-2R, IP1 accumulation, highest dose tested 1×10^6 pM, read-out: EC50 (CCK-2R)
[7] = displacement of [125I]-CCK-8s, plasma membranes of 1321-N1 cells expressing CCK-2R, highest dose tested 1×10^7 pM, read-out: IC50 (CCK-2R)

SMILES | IC50 [1, 5] [nM] | EC50 [2, 6] [nM] | IC50 [3, 7] [nM] | other results
CCCC[C@H](NC(=O)[C@H](Cc1c[nH]c2ccccc12)NC(=O)CNC(=O)[C@H](CC(C)C)NC(=O)[C@H](Cc1ccc(OS(=O)(=O)O)cc1)NC(=O)[C@H](CC(=O)O)NC(=O)[C@H](CO)NC(=O)[C@H](CO)NC(=O)CNC(=O)[C@H](CO)NC(=O)[C@H](CO)NC(=O)CNC(=O)CCCCCCCCCCCCCCCCC(=O)O)C(=O)N(C)[C@H](CC(=O)O)C(=O)N(C)[C@@H](Cc1ccccc1)C(N)=O [Example 29, 17-Carboxyheptadecanoyl-Gly-Ser-Ser-Gly-Ser-Ser-Asp-sTyr-Leu-Gly-Trp-Nle-DMeAsp-MePhe-amide] ({C18 diacid}-GSSGSSD[sY]LGW[Nle][dNMeD][NMeF]-NH2) | 0.072 |  |  | CCK-1R binding selectivity (IC50 (CCK-2R)/IC50 (CCK-1R)) ([1]; ratio of binding IC50 values, >1 = preference for CCK-1R): 5100
CCCC[C@H](NC(=O)[C@H](Cc1ccc(OS(=O)(=O)O)cc1)NC(=O)[C@H](CC(=O)O)NC(=O)COCCOCCNC(=O)COCCOCCNC(=O)CC[C@H](NC(=O)CCCCCCCCCCCCCCCCC(=O)O)C(=O)O)C(=O)NCC(=O)N[C@@H](Cc1c[nH]c2ccccc12)C(=O)N[C@@H](CCCC)C(=O)N(C)[C@H](CC(=O)O)C(=O)N[C@@H](Cc1cccc2ccccc12)C(N)=O [Example 2, 2-[2-[2-[[2-[2-[2-[[(4S)-4-Carboxy-4-(17-carboxyheptadecanoylamino)butanoyl]amino]ethoxy]ethoxy]acetyl]amino]ethoxy]ethoxy]acetyl-Asp-sTyr-Nle-Gly-Trp-Nle-DMeAsp-1Nal-amide] ({C18 diacid-γGlu-AEEA-AEEA}-D[sY][Nle]GW[Nle][dNMeD][1Nal]-NH2) | 0.13 | 180 | 1000 | 
CCCC[C@H](NC(=O)[C@H](Cc1c[nH]c2ccccc12)NC(=O)CNC(=O)[C@H](CC(C)C)NC(=O)[C@H](Cc1ccc(CS(=O)(=O)O)cc1)NC(=O)[C@H](CC(=O)O)NC(=O)COCCOCCNC(=O)COCCOCCNC(=O)CC[C@H](NC(=O)CCCCCCCCCCCCCCCCCCC(=O)O)C(=O)O)C(=O)N(C)[C@H](CC(=O)O)C(=O)N(C)[C@@H](Cc1ccccc1)C(N)=O [Example 35, 2-[2-[2-[[2-[2-[2-[[(4S)-4-Carboxy-4-(19-carboxynonadecanoylamino)butanoyl]amino]ethoxy]ethoxy]acetyl]amino]ethoxy]ethoxy]acetyl-Asp-Phe(4-sulfomethyl)-Leu-Gly-Trp-Nle-DMeAsp-MePhe-amide] ({C20 diacid-γGlu-AEEA-AEEA}-D[Phe(4-CH2SO3H)]LGW[Nle][dNMeD][NMeF]-NH2) |  | > 1000 | > 10000 | 
CCCC[C@H](NC(=O)[C@H](Cc1c[nH]c2ccccc12)NC(=O)CNC(=O)[C@H](CC(C)C)NC(=O)[C@H](Cc1ccc(CS(=O)(=O)O)cc1)NC(=O)[C@H](CC(=O)O)NC(=O)COCCOCCNC(=O)COCCOCCNC(=O)CC[C@H](NC(=O)CCCCCCCCCCCCC(=O)O)C(=O)O)C(=O)N(C)[C@H](CC(=O)O)C(=O)N(C)[C@@H](Cc1ccccc1)C(N)=O [Example 34, 2-[2-[2-[[2-[2-[2-[[(4S)-4-Carboxy-4-(13-carboxytridecanoylamino)butanoyl]amino]ethoxy]ethoxy]acetyl]amino]ethoxy]ethoxy]acetyl-Asp-Phe(4-sulfomethyl)-Leu-Gly-Trp-Nle-DMeAsp-MePhe-amide] ({C14 diacid-γGlu-AEEA-AEEA}-D[Phe(4-CH2SO3H)]LGW[Nle][dNMeD][NMeF]-NH2) |  | > 1000 | > 10000 | 
CCCC[C@H](NC(=O)[C@H](Cc1ccc(CS(=O)(=O)O)cc1)NC(=O)[C@H](CC(=O)O)NC(=O)COCCOCCNC(=O)COCCOCCNC(=O)CC[C@H](NC(=O)CCCCCCCCCCCCCCCCC(=O)O)C(=O)O)C(=O)NCC(=O)N[C@@H](Cc1c[nH]c2ccccc12)C(=O)N[C@@H](CCCC)C(=O)N(C)[C@H](CC(=O)O)C(=O)N(C)[C@@H](Cc1ccccc1)C(N)=O [Example 3, 2-[2-[2-[[2-[2-[2-[[(4S)-4-Carboxy-4-(17-carboxyheptadecanoylamino)butanoyl]amino]ethoxy]ethoxy]acetyl]amino]ethoxy]ethoxy]acetyl-Asp-Phe(4-sulfomethyl)-Nle-Gly-Trp-Nle-DMeAsp-MePhe-amide] ({C18 diacid-γGlu-AEEA-AEEA}-D[Phe(4-CH2SO3H)][Nle]GW[Nle][dNMeD][NMeF]-NH2) |  |  |  | EC50 [2]: > 1000 nM; IC50 [1]: 0.26 nM; IC50 [3]: > 10000 nM; stability higher than the stability of CCK-8s [4]: about 50%
